The results in this text go back to patent publication US20250057821A1, “METHODS OF TREATING MYELOID MALIGNANCIES USING BCL-2 INHIBITOR” (BeiGene Switzerland GmbH, priority 2022, published 2025).

In one data set the test system is patients with AML. In words: Clinical study: antileukemic activity of Compound A in combination with azacitidine in patients with AML. The following applies: for CR / CR+CRh: 80 mg x 10 day cohort (n=17); for CR/CRh: in combination with azacitidine 75 mg/m2 x 7 days, data cutoff 5 Sep. 2022. The class given is in vivo, human. As to the method: The clinical study was conducted to evaluate the combination of Compound A and azacitidine in patients with myeloid malignancies, including acute myeloid leukemia (AML) (either treatment-naïve [TN] unfit for intensive induction chemotherapy or relapsed/refractory [R/R]), myelodysplastic syndrome (MDS), or MDS/myeloproliferative neoplasm (MPN). Patients with AML who were treatment-naive unfit for intensive chemotherapy or who are relapsed/refractory were enrolled into the AML cohorts; and patients with myelodysplastic syndrome (MDS) or MDS/myeloproliferative neoplasm (MPN) who were treatment-naïve with high-risk disease or who were relapsed/refractory were enrolled into the MDS cohorts. The AML cohorts enrolls patients with treatment-naive (TN) AML who are unfit for intensive chemotherapy and relapsed/refractory (R/R) AML. The treatment cycles are of 28 days for all AML cohorts, unless recommended otherwise by the Safety Monitoring Committee (SMC). Part 1 AML (Dose Regimen Finding; N≈18 to 36, i.e., a minimum of 6 and a maximum of 12/cohort) studied the safety and tolerability of different dose regimens of Compound A in combination with a fixed dose of azacitidine at 75 mg/m^2 for 7 days. After 3 patients have completed the dose-limiting toxicities (DLT) window, the SMC reviewed all available data and considered the probability of DLT rate to be >20% and recommended whether or not to enroll additional patients (ie, up to 12). If no additional patients were required, the SMC would recommend whether or not to open a subsequent dose regimen in Part 1 and whether to open the dose regimen for Part 2 expansion. […] The window to assess dose-limiting toxicity (DLT) is up to Day 28 for nonhematologic toxicities and Day 42 or initiation of Cycle 2 for hematologic toxicities. The AML Part 1 dose regimen finding cohorts are as follows: • A) Compound A 40 mg daily×10 days with azacitidine (Ramp-up dosing of Compound A: 5 mg, 10 mg, 20 mg, 40 mg) • B) Compound A 80 mg daily×10 days with azacitidine (Ramp-up dosing of Compound A: 10 mg, 20 mg, 40 mg, 80 mg) • C) Compound A 160 mg daily×10 days with azacitidine (Ramp-up dosing of Compound A: 20 mg, 40 mg, 80 mg, 160 mg) • D) Compound A 160 mg daily×28 days with azacitidine (Ramp-up dosing of Compound A: 20 mg, 40 mg, 80 mg, 160 mg) • E) Compound A 320 mg daily×21 days with azacitidine (Ramp-up dosing of Compound A: 40 mg, 80 mg, 160 mg, and 320 mg) • F) Compound A 320 mg daily×28 days with azacitidine (Ramp-up dosing of Compound A: 40 mg, 80 mg, 160 mg, and 320 mg) In all Part 1 AML cohorts and the Part 2 cohort receiving the 28-day dose regimen, the initial dose of azacitidine is given 1 day prior to administration of Compound A (designated as Day 0) to compare baseline PK samples of azacitidine monotherapy with azacitidine in combination with Compound A, which starts on Day 1. In the subsequent cycles and all remaining cohorts, azacitidine administration start on Day 1 concurrently with Compound A. Dosing schema in Part I AML is shown in FIG. 1. Part 2 AML (Safety Expansion; N≈60) treated up to the cohorts each consisting of approximately 10 patients with dose regimens as defined in Part 1 and recommended by the SMC to proceed to Part 2. Part 2 of the study determined safety and antileukemic activity in a larger number of patients with a longer follow-up at dose regimens that were declared tolerable with early signs of activity in Part 1. At a given time, more than one dose regimen may be approved for expansion in Part 2; however, only a single Part 2 AML cohort was to be offered to prospective participants. Patients were preferentially enrolled in any open Part 1 cohort, if applicable. Each Part 2 cohort would continue to enroll up to 10 patients; this would include any additional patients enrolled in Part 1 but not needed for the initial SMC safety review of that cohort. […]

The test system of data set [1] is patients with AML or MDS or MDS/MPN. In words: Clinical study: safety and tolerability of Compound A in combination with azacitidine. Particulars: treatment of AML or MDS or MDS/MPN, as of 4 Feb. 2023, 97 patients. Format: in vivo, human. As to the method:
The clinical study was conducted to evaluate the combination of Compound A and azacitidine in patients with myeloid malignancies, including acute myeloid leukemia (AML) (either treatment-naïve [TN] unfit for intensive induction chemotherapy or relapsed/refractory [R/R]), myelodysplastic syndrome (MDS), or MDS/myeloproliferative neoplasm (MPN). Patients with AML who were treatment-naive unfit for intensive chemotherapy or who are relapsed/refractory were enrolled into the AML cohorts; and patients with myelodysplastic syndrome (MDS) or MDS/myeloproliferative neoplasm (MPN) who were treatment-naïve with high-risk disease or who were relapsed/refractory were enrolled into the MDS cohorts.
Part 1 AML (Dose Regimen Finding; N≈18 to 36, i.e., a minimum of 6 and a maximum of 12/cohort) studied the safety and tolerability of different dose regimens of Compound A in combination with a fixed dose of azacitidine at 75 mg/m^2 for 7 days. After 3 patients have completed the dose-limiting toxicities (DLT) window, the SMC reviewed all available data and considered the probability of DLT rate to be >20% and recommended whether or not to enroll additional patients (ie, up to 12). […]
All Part 1, Part 2, and Part 3 cohorts were assessed for DLTs. […]

Setting [2] is: R/R patients, in combination with azacitidine.
Where [3] appears, read: TN patients, in combination with azacitidine.

For `CC(C)c1ccccc1[C@@H]1CCCN1C1CC2(CCN(c3ccc(C(=O)NS(=O)(=O)c4ccc(NCC5CCC(C)(O)CC5)c([N+](=O)[O-])c4)c(Oc4cnc5[nH]ccc5c4)c3)CC2)C1` (stereo partly drawn) [Compound A, 2-((1H-pyrrolo[2,3-b]pyridin-5-yl)oxy)-N-((4-((((1r,4r)-4-hydroxy-4-methylcyclohexyl)methyl)amino)-3-nitrophenyl)sulfonyl)-4-(2-((S)-2-(2-isopropylphenyl)pyrrolidin-1-yl)-7-azaspiro[3.5]nonan-7-yl)benzamide], the CR with patients with AML (setting [2]) is given as 50%; with patients with AML (setting [3]), 73%. Also, the “CR+CRh” value in the data set with patients with AML (setting [2]) is recorded as 67%; in the data set on patients with AML (setting [3]), 73%. In addition, the CR/CRh is on record as 50% with patients with AML (R/R AML patients, all dose cohorts) and 65% in the data set with patients with AML (TN unfit AML patients, all dose cohorts (40, 80, 160 mg x 10 days, 160 mg x 28 days)). Moreover, the “CR+CRh in TN AML achieved by the end of cycle 1” value with patients with AML (TN AML patients, responders by end of cycle 1 out of all CR+CRh responders, in combination with azacitidine) is reported as 15 of 20. In data set [1], the safety analysis result was “well-tolerated and safe”.
